# Square brackets hold non-standard residues; d marks the D form. Ends that are not written are not given here. Peptide text beside a SMILES is read from it. 1Nal = N[C@@H](Cc1cccc2ccccc12)C(=O)O; 2Nal = N[C@@H](Cc1ccc2ccccc2c1)C(=O)O; Nle = CCCC[C@H](N)C(=O)O; Nlys = NCCCCNCC(=O)O
# What was measured:
# P. aeruginosa (26314) = type: cell-based, Pseudomonas aeruginosa; conditions: 26314, 18 h
# Method: Activity of B1 was tested on […]. aeruginosa isolates and […]. pseudintermedius isolates (including 7 MRSP) that had been isolated in the diagnostic laboratory Sund Vet Diagnostik (University of Copenhagen) from various infections in dogs between 2009 and 2011. Representative […], and P. aeruginosa (26314) were used for testing the first set of B1 analogues. For antibacterial spectrum the following strains were used: Corynebacterium auriscanis, 31551, (54 C6, dog, ear, 2013); Enterococcus faecalis, 27404, (17 C7, dog, wound, 2011); Enterococcus faecium, 30951, (24 C1, dog, ear, 2013); Streptococcus canis, 26740-1, (14 H1, dog, ear, 2010); Staphylococcus aureus, 27266, (16 G9, dog, skin, 2010); Staphylococcus aureus, 27266, (16 G9, dog, skin, 2010); Staphylococcus pseudintermedius 22963, (3 B9, dog, 2007). Acinetobacter baumannii, 27065, (16 D1, dog, wound, 2010); E. coli, 30235, 23 A6, dog, wound, 2012; Klebsiella pneumoniae, 26233, (11 H5, dog, wound, 2010); Pasteurella canis, 31096, (24 C8, dog, skin, 2013); Proteus mirabilis, 25178, (9 A4, dog, ear, 2009); Pseudomonas aeruginosa 26314, 12 C5, dog, urine, 2010). MIC determination was performed by broth microdilution according to the Clinical and Laboratory Standard Institute (CLSI, […]-A3, 2008)[62]. In brief, each bacterial strain was diluted to concentration of 5 × 10^5 CFU/mL in Mueller Hinton broth II (MHB II) media (Oxoid) and added to a two-fold serial dilution of peptides and peptide-peptoid hybrids concentrations ranging from 1 to 64 μg/ml in 96-well plates (Nunc Internationals, Rochester, NY). The MICs were determined as a lowest concentration showing no visible growth after incubation for 18 hours at 37 °C. Experiments were performed in triplicates on two different days.
# MRSP C22963 = type: cell-based, Staphylococcus pseudintermedius; conditions: 18 h
# Method: (§1) Activity of B1 was tested on 50P. aeruginosa isolates and 57S. pseudintermedius isolates (including 7 MRSP) that had been isolated in the diagnostic laboratory Sund Vet Diagnostik (University of Copenhagen) from various infections in dogs between 2009 and 2011. Representative MRSP (C22963), MSSA, and P. aeruginosa (26314) were used for testing the first set of B1 analogues.
# (§2) MIC determination was performed by broth microdilution according to the Clinical and Laboratory Standard Institute (CLSI, M31-A3, 2008)[62]. In brief, each bacterial strain was diluted to concentration of 5 × 10^5 CFU/mL in Mueller Hinton broth II (MHB II) media (Oxoid) and added to a two-fold serial dilution of peptides and peptide-peptoid hybrids concentrations ranging from 1 to 64 µg/ml in 96-well plates (Nunc Internationals, Rochester, NY). The MICs were determined as a lowest concentration showing no visible growth after incubation for 18 hours at 37 °C. Experiments were performed in triplicates on two different days.
# MSSA (ATCC 29213) = type: cell-based, Staphylococcus aureus; conditions: ATCC 29213, 18 h
# Method: as §1, §2
# human red blood cells = type: cell-based
# Method: (§3) Briefly, two-fold serial dilutions (2.35 to 150 μM) of compounds in phosphate buffer saline (PBS) were mixed with equal volume of 0.5% v/v suspension of fresh human red blood cells (RBC) in the same buffer. After 1 h incubation at 37 °C, plates were centrifuged and aliquots of the supernatants were transferred to clear 96-well plates. Absorbance at 414 nm was measured and normalized using a negative (PBS, 0%) and a positive (melittin, 100%) control. The EC10 and EC50 are concentrations at which 10% and 50% of RBC were lysed, respectively, as interpolated graphically by the y-axis intersection of the plotted data.
# [1] = type: cell-based, human; conditions: human
# Method: as §3
# [2] = test system: membrane potential of MRSP E104; experiment: DiSC3(5) fluorescence-based membrane potential study; type: cell-based, Staphylococcus pseudintermedius; conditions: MRSP E104, nisin treatment
# Method: Freshly sub-cultured E104 cells were labelled with 1 µM 3,3-Dipropylthiadicarbocyanine iodide [DiSC3(5)] (Sigma) in MHB II. The fluorescence spectra of labelled cells were plotted in the LS50B luminescence spectrometer (PerkinElmer) at excitation/emission wavelengths 546 nm/573 nm using time drive application of FLWINLAB software. After reading an initial stable emission spectra of DiSC3(5), labelled cells were treated with B1 or nisin or protonophore CCCP at 1, 1.5 and 1.25 µg/ml, respectively and the change of fluorescence over time was recorded. The increment of DiSC3(5) fluorescence upon addition of antimicrobials or CCCP (FUafter-treatment – FUbefore-treatment) was plotted. This experiment was performed twice and each time with two technical replicates.
# [3] = test system: cell wall synthesis in MRSP E104; experiment: Macromolecule biosynthesis rate, cell wall (3H-glucosamine); type: cell-based, Staphylococcus pseudintermedius; conditions: MRSP E104, 1.25 µg/ml, 20 min
# Method: (§4) Macromolecule biosynthesis rate was measured in MRSP E104 following a protocol adapted from Ling et al.[65]. Briefly, E104 overnight culture was sub-cultured 1:100 in MHB II and grown up to OD 0.2 at 600 nm. Cells were pelleted down by centrifugation and resuspended in fresh medium followed by incubation for 20 min with B1 or nisin at 1.5 µg/ml and 1.25 µg/ml, respectively, and radiolabeled precursor: (50µCi) 3H-Thymidine (PerkinElmer) and (5µCi) 3H-glucosamine hydrochloride per ml for DNA and cell wall, respectively. A positive control without antimicrobial was maintained. After incubation, samples were precipitated with equal volume of cold 30% TCA (Sigma) on ice. Precipitates were filtered on a membrane filter and subsequently subjected to two washes of cold 15% TCA and two washes of cold water using vacuum manifold. Subsequently, filters were air dried overnight and then transferred to 10 ml scintillation vials. Finally, scintillation fluid (3 ml) was added to each vial and ^3H count was taken in Beckman Coulter LS6500 liquid scintillation counter for one minute. The radioactive counts of the control samples were considered to have 100% precursor incorporation and macromolecule synthesis. The percentage rates of the antimicrobial-exposed samples were calculated accordingly. Each experiment was performed with replicates and the average rates of incorporation were plotted.
# [4] = test system: DNA synthesis in MRSP E104; experiment: Macromolecule biosynthesis rate, DNA (3H-Thymidine); type: cell-based, Staphylococcus pseudintermedius; conditions: MRSP E104, 1.25 µg/ml, 20 min
# Method: as §4
# MRSP E104 = experiment: High-throughput growth curves (BioScreen); type: cell-based, Staphylococcus pseudintermedius; conditions: growth curve analysis
# Method: The effects of B1 on the growth of a reference MRSP strain (ST71, E104) were evaluated using BioScreen (Oy Growth Curves Ab LTd, Finland). A well characterized antimicrobial peptide, Nisin, was used as a positive control. […] The OD600 of each micro-culture was measured and recorded every 15 min after a 5 second pause of shaking in automatic mode. The recorded ODs were plotted against time to prepare the growth curves. The assay was performed with technical and biological replicates, and one representative result was presented.
Compound,Minimum Inhibitory Concentration P. aeruginosa (26314) (P. aeruginosa (26314)),Minimum Inhibitory Concentration MRSP C22963 (MRSP C22963),Minimum Inhibitory Concentration MSSA (ATCC 29213) (MSSA (ATCC 29213)),Haemolysis EC10 (human red blood cells),"EC50 (human red blood cells; red cells of human, 1 h)","hemolysis at 1 h, 150 µM [1]","membrane potential, DiSC3(5) fluorescence emission [2]",inhibition of cell wall synthesis [3],inhibition of DNA synthesis [4],MIC concentration (cell lysis) MRSP E104 (MRSP E104)
"CCCC[C@H](NC(=O)[C@H](CCCCN)NC(=O)[C@H](CCCCN)NC(=O)[C@@H](N)CCCCN)C(=O)N[C@@H](Cc1cccc2ccccc12)C(=O)N[C@@H](Cc1ccccc1)C(=O)N[C@@H](Cc1cccc2ccccc12)C(N)=O [Compound 24, Lys-Lys-Lys-Nle-(1-Nal)Ala-Phe-(1-Nal)Ala] (H-KKK[Nle][1Nal]F[1Nal]-NH2; N-terminus assumed)",16 µg/mL,16 to 32 µg/mL,>64 µg/mL,3 µM,41 µM,60%,,,,
"CC(C)C[C@H](NC(=O)CN(CCCCN)C(=O)CN(CCCCN)C(=O)CNCCCCN)C(=O)N[C@@H](Cc1ccc2ccccc2c1)C(=O)N[C@@H](Cc1ccccc1)C(=O)N[C@@H](Cc1ccc2ccccc2c1)C(N)=O [Compound 29, NLys-NLys-NLys-Leu-(2-Nal)Ala-Phe-(2-Nal)Ala] (H-[Nlys][Nlys][Nlys]L[2Nal]F[2Nal]-NH2; N-terminus assumed)",32 µg/mL,4 to 8 µg/mL,16 to 32 µg/mL,9 µM,,46%,,,,
"nisin (ITSISLCTPGCKTGALMGCNMKTATCHCSIHVSK; not fully specified (some residues, bridges); cysteine pairing not given here; also: lantibiotic nisin-A (post-translational modifications not given here); UniProt P13068 24-57, looked up) [well-characterized antimicrobial peptide used as control, reference compound]",,,,,,,no fluorescence increment,60%,50%,5 µg/mL

# From article PMC6403271, “Characterization, mechanism of action and optimization of activity of a novel peptide-peptoid hybrid against bacterial pathogens involved in canine skin infections” (Scientific Reports, 2019)
